Reference: a melting point compilation (Tetko et al.; mined from patent text by program, amines drawn as free bases though some values may be those of a salt)

SMILES	melting point [°C]
COc1cc(N2CCCCC2)ccc1C(=O)c1ccccc1C(=O)O	199 to 201
CC1(C)CCC(C)(C)c2cc(-c3cc([N+](=O)[O-])ccc3-c3ccccc3)ccc21	181 to 183
CC(C)Sc1nc(C(F)(F)F)c(I)c(=O)[nH]1	212 to 215
COC(=O)/C=C/n1cnc2ccc(OC(C)C)cc2c1=O	156 to 158
Cc1cc(CCCCCOc2ccc(-c3nc(C)c(C)s3)cc2)on1	96 to 97
O=C(NCc1ccccc1)Nc1cc(CNc2ccccc2C(=O)Nc2cccc(C(F)(F)F)c2)ccn1	153
CC#CCCn1ncc2c(N)c3c(nc21)CN(CCC)C3=O	178 to 180
COC(=O)C1Oc2ccccc2Cc2ccc(OC)cc2O1 (stereo not given)	93 to 95
c1ccc(-c2coc3c2ccc2ccccc23)cc1	98 to 109
Nc1cc2c3c(cc(N)cc3c1)C(=O)N(O)C2=O	329 to 336
COC(=O)C(N)Cc1ccc(OCc2nc3ccc(OC)cc3n2C)cc1 (stereo not given)	108 to 111
O=C1[C@H]2CCC[C@H]2Nc2ccc(Cl)cc2N1Cc1ccccc1 (relative stereo)	160 to 163
Cc1cc(C)c2c(n1)N(CCN(C(C)C)C(C)C)C(=O)N(C)C2	97 to 99
N#CCCSN1C(=O)c2ccccc2C1=O	162 to 164
Nc1ncnc2c1ncn2[C@H]1C[C@@H](CO)C1	85 to 88
O=C1N=CC(OCc2ccccn2)(C(F)(F)F)c2cc(Cl)ccc2N1 (stereo not given)	233 to 235
COc1cc(OCc2ccccn2)ccc1/C=C/c1cc(/C=C/c2ccc3cc[nH]c3c2)n(C(C)O)n1 (stereo not given)	94 to 97
Cc1nn(C)c2nc(-c3ccncc3)nc(N)c12	235 to 236
CS(=O)(=O)c1cc(C(=O)O)ccc1Oc1ccc(C(=S)Cc2ccc3ccccc3n2)cc1	210 to 214
O=C(NCc1ccc(Cl)cc1)c1cnc2cc(CCCO)ccc2c1O	166 to 168
CSC1C(=O)Nc2c(C(=O)c3ccc(F)cc3)cc(Cl)cc21 (stereo not given)	202 to 204
COc1cc(OCc2ccccn2)ccc1C=O	93.6
Brc1cc(-c2ccccc2)on1	71 to 73
O=C1OCc2c1cccc2[N+](=O)[O-]	134 to 136
O=C1NCC=NN1c1ccc(Cc2ccc(Cl)cc2)c(Cl)c1	196 to 197

SMILES	melting point [°C]
COC(=O)C1=C(C)NC(C)=C(C(=O)OC)C1c1ccccc1-c1cccs1	173 to 175
O=c1c(O)c(-c2ccco2)oc2ccccc12	173 to 174
COC(=O)NC1=NC(c2ccc(F)cc2)CCN1 (stereo not given)	211 to 212
CCCCOCCOc1ccc(-c2ccc3c(c2)C=C(C(=O)Nc2ccc(N(C)Cc4nncn4CCC)cc2)CCN3CCC)cc1	131 to 133
Cc1ncn(CCCOc2c(C)cc(-c3nnn(C)n3)cc2C)n1	101 to 103
COC(=O)c1ccc2[nH]cc(C3=CCN(C)CC3)c2c1	202 to 204
CCOC(=O)c1c(N2CCN(c3ccccc3)CC2)c2ccc(C)nc2n(CC)c1=O	110 to 112
Cc1cc(C)cc(C(=O)N(N(C(=O)c2ccc3c(c2C)OCCO3)C(=O)N(C)C)C(C)(C)C)c1	60 to 64
C=C(c1ccc(-c2nnc(N)s2)cc1)C(O)(Cn1cncn1)c1ccc(F)cc1F (stereo not given)	118 to 121
CCCc1nnc2ccc(-c3ccccc3)nn12	123 to 125
O=C(OC1CCCCC1=O)c1ccc([N+](=O)[O-])cc1 (stereo not given)	124 to 125
O=C(O)c1ccccc1NC(=O)c1ncoc1-c1ccc(C(F)(F)F)cc1	231 to 232
CCCc1oc(C)cc(=O)c1C(=O)Nc1ccccc1	133 to 134
O=C(O)c1cc(=O)c2c(o1)-c1ccccc1SC2	251 to 253
COc1cccc(-c2cc(S(=O)(=O)c3ccc(N)cc3)cc(N3CCCC3)n2)c1	214 to 215
CCN(c1ccc(Cl)cc1[N+](=O)[O-])S(=O)(=O)c1ccc(Cl)cc1	122 to 123
COc1ccc(OCC(O)CNC(C)(C)C)c(-c2ccc(=S)[nH]n2)c1 (stereo not given)	188 to 190
CC(C)(C)OC(=O)NCCCN(CCCCOC(=O)NCNC(=O)CCCCCCNC(=O)OCc1ccccc1)C(=O)OC(C)(C)C	115
Cc1c(C(=O)C(=O)NC2=CC(=O)OC2)c2ccccc2n1Cc1ccc(Cl)cc1	254 to 256
CCOC(=O)CCc1cc2c(Nc3ccc4[nH]ccc4c3)c(C#N)cnc2s1	202
COC1=C(OC)C(=Nc2ccccc2)NC1=O	141 to 143
O=C1CCC(C(=O)OCc2ccccn2)N1 (stereo not given)	130 to 131
CCNC(=O)N1CCc2cc(S(=O)(=O)n3cc(-c4ccccc4)[nH]c3=O)ccc21	234 to 235
NC(=O)NN=Cc1ccc(Oc2ccc3c(c2)OCO3)cc1	225 to 226
COC(=O)CCCc1cc2nc(Cl)ccc2n1S(=O)(=O)c1cc(Cl)ccc1Cl	95 to 105

SMILES	melting point [°C]
CC(C)(C)OC(=O)CN(O)CC(=O)OC(C)(C)C	73 to 76
CCOC(=O)[C@@H]1O[C@@H]1c1ccc(C)cc1	66
COc1ccc(-c2cc(C)sc2-c2ccc(OC)cc2)cc1	93 to 97
CC(=O)Nc1nc(CCc2ccc(CCC(=O)O)s2)cs1	164 to 165
CCOC(=O)c1ccc(Cn2c(C)nc3ccc(C(=O)NS(=O)(=O)c4ccccc4)nc32)c(Cl)c1	196 to 197
Cc1oc(-c2cccs2)nc1CCOc1ccc([N+](=O)[O-])cn1	126
CCC1(CC)c2cc(Br)ccc2-c2ccc(-c3nc4ccccc4s3)cc21	134 to 135
N#CC1CN1C(=O)NC(=O)C=Cc1ccccc1 (stereo not given)	134 to 136
COCCn1nc2c(N)nc3ccccc3c2c1CCCCNS(C)(=O)=O	159 to 161
COc1ccc(-c2nnn(-c3ccc(C(F)(F)F)cc3Cl)c2N)cc1	130 to 131
O=C(O)c1cn(CCCO)c(=O)c2ccccc12	205
CC(C)(CCCCCCCCCCC(C)(C)C(Cl)(Cl)C(=O)O)C(Cl)(Cl)C(=O)O	154
COc1c(C)c(NC(=O)NCCO)c(C)c2c1OCC2c1ccc(C(C)C)cc1 (stereo not given)	127 to 129
COC(=O)CCC#Cc1cc(Cl)ccc1NS(=O)(=O)c1ccc2nc(NC(C)=O)sc2c1	85
COC(=O)C(=O)c1ccc(N(C=O)CCOc2ccc3ccccc3c2)cc1	103 to 104
COC(=S)OC(C(=O)OC(c1ccccc1)c1ccccc1)c1ccccc1 (stereo not given)	74
COc1cc2c(cc1OC)-c1cc(Cl)nc(=O)n1CC2	235 to 236
COc1cc(OC)nc(Sc2cnn(C)c2NS(=O)(=O)CC#N)n1	147 to 148
C[C@H](COc1ccc(C=C2SC(=S)N(CC(=O)O)C2=O)cc1OCc1ccccc1)c1ccccc1	148
Cc1nnc2n1-c1sc(C#CCn3c4c(c5ccccc53)CCCC4)cc1C(c1ccccc1Cl)=NC2	164 to 166
CCCCCCCCCCCCCCc1ccc(C(C)=O)c(O)c1	45 to 46
COC(=O)CN(N)c1cc(C)cc(C)c1	56 to 58
COC(=O)C#CC(=O)c1ccc(C)cc1	44 to 47
CC(=O)Nc1nc(CCc2ccc(NC(=O)OC(C)(C)C)cc2)c(C(=O)NCc2ccccc2)s1	184 to 185
CC(=O)Nc1nc2ccc(OC(C)=O)cc2n1S(=O)(=O)N(C)C	164 to 166

SMILES	melting point [°C]
COC(=O)COc1ccc(C(=O)NNC(=O)c2ccc(C(=N)SC)cc2)cc1	208 to 210
CC(C)c1ccc(NC(=N)c2cccc(NC(=O)C=Cc3ccccc3Cl)c2)cc1	112 to 118
Clc1ccc(-c2[nH]c3c(Cl)cc(Cl)cc3c2Cl)cc1	148 to 149
NC(=O)N1C(=O)Cc2ccccc21	179 to 180
FC(F)(F)c1c(CNC2Cc3ccccc3C2)ccn2c(CC3CC3)nnc12	> 300
CC(C(=O)O)c1cccc2c1Oc1ccccc1CC2 (stereo not given)	133 to 134
Cn1c(=O)c(-c2ccc(Cl)cc2Cl)cc2c3cc(-c4csc(COC(=O)C(C)(C)C)n4)ccc3n(C)c21	193 to 195
CCCOC(=O)c1cc(-c2ccc(Cl)cc2)cnc1C	54 to 57
CN1C(=O)CC[C@]2(C)c3ccc(Sc4nc5cc([N+](=O)[O-])ccc5s4)cc3CC[C@@H]12	96 to 100
CCOC(=O)/C(CCO)=C(\c1ccc(Cl)cc1)c1ccc(S(C)(=O)=O)cc1	128
CC(=O)SC(C(=O)c1ccccc1)C(C)C(=O)N1C(c2cccc(C(F)(F)F)c2)SC[C@H]1C(=O)O (stereo not given in full)	152 to 154
O=C(O)c1ccc(Br)cc1COc1ccccc1	160 to 163
CN(C)Cc1cc(Oc2ccc3c(C(=O)Nc4cccc(C(F)(F)F)c4)cccc3c2)ncn1	180 to 181
OC1C=C(c2ccc(C(F)(F)F)cc2)CN(Cc2ccccc2)C1 (stereo not given)	88 to 90
COCCn1nc2c(N)nc3ccccc3c2c1CCCCCl	156 to 157
CCCCn1ncc(/C=C(\Cc2cc3c(cc2OC)CCO3)C(=O)O)c1-c1ccc(Cl)cc1OCc1ccccc1C(=O)O	116 to 118
CC(=O)OC(c1cscc1S(N)(=O)=O)C(C)F (stereo not given)	92 to 94
O=[N+]([O-])c1ccc(Oc2c(Cl)cc(S(=O)(=O)NC(=NO)Nc3ccc(Cl)cc3)cc2Cl)cc1	212
CC1(CCOC2CCCCO2)C(=O)NNC1=O (stereo not given)	179 to 180
Cc1cc(C)c2c(n1)N(CCN1CCOCC1)c1ccccc1N(C)C2=O	133 to 135
C#CCSc1cc(C(=O)O)cc(S(N)(=O)=O)c1Oc1ccccc1	197 to 198
CCCCOc1c(CNC(=O)OC(C)(C)C)n(CC(C)C)c(=O)c2ccc(-c3nnn[nH]3)cc12	152 to 153
CCOC(=O)C(=O)Nc1c([N+](=O)[O-])cc(Cl)cc1C(F)(F)F	100 to 101
CCOC(=O)[C@H](CO)NC(=O)[C@H](CC(=O)OCc1ccccc1)NC(=O)OC(C)(C)C	96 to 97
O=C1N=CN(c2ccc(Cl)cc2)C12CCN(Cc1ccccc1)CC2	217 to 219
